Measurements: patent publication US9034868B2 (priority 2008, dated 2015)
Entries after “also recorded” stand apart in the source; their conditions may differ.

Key:
CTxB = assay type: cell-based; conditions: 20 μM
transferrin (Tf) = assay type: cell-based; conditions: 20 μM, 30 min, 37° C.
TGN46 = assay type: cell-based, human
StxB [1] = assay type: cell-based; conditions: 20 μM, 30 min, 37° C.
CI-MPR = assay type: cell-based, human
StxB [2] = assay type: cell-based, human
StxB [3] = assay type: cell-based; conditions: 20 μM, 45 min at 37° C.
StxB [4] = assay type: cell-based, human; remark: listed apart in the source
StxB [5] = assay type: cell-based
[6] = tested on: vesicular stomatitis virus G protein (VSVG); assay type: cell-based, human
125I-EGF = assay type: cell-based, human

CCC(=O)N1CC(=O)Nc2ccc(Br)cc2C1c1ccccc1 (stereo not drawn) [Compound 193, 7-bromo-5-phenyl-4-propionyl-4,5-dihydro-1H-benzo[e][1,4]diazepin-2(3H)-one] was tested, and the “effect on protein biosynthesis” value (HeLa-cells) was “only minor”, the “cellular localisation of CtxB” value (CTxB) was “accumulation” and the “inhibition of Stx cytotoxicity” value (Stx1 and Stx2) was 100 fold. The “endocytosis of transferrin (Tf)” value (transferrin (Tf)) was “not altered”, the “steady-state localization and transport of TGN46” value (TGN46) was “similar; also recorded: not been observed a distinct inhibition; also recorded: did not observe a pronounced effect; also recorded: do not impact distinctly” and the “endocytosis of StxB” value (StxB [1]) was “not altered”. The apparent side effects (THP1-cells) was “did not cause any apparent side effects”, the “steady-state localization of CI-MPR” value (CI-MPR) was “similar” and the “retrograde transport of StxB to the TGN” value (StxB [2]) was “stark reduction”. For the same compound, the “cellular localisation of STxB” value (StxB [3]) was “accumulation”, the “amount of bound StxB on cells” value (StxB [4]) was “not reduced” and the “reduction of retrograde transport of STxB to the TGN” value (StxB [5]) was 90%. The “reduction of transport of StxB to the TGN, 4 h after internalization” value (StxB [5]) was 50%, the “anterograde transport of GFP-VSVGts045” value [6] was “not significantly reduced” and the “effect on lysosomal degradation of 125I-EGF” value (125I-EGF) was “no effect”.
